Assay results as given in US20190183900A1, “COMPOSITION FOR PROLIFERATION, DIFFERENTIATION PROMOTION, OR SENESCENCE INHIBITION OF STEM CELLS, CONTAINING JAK1 INHIBITOR AS ACTIVE INGREDIENT” (UNIVERSITY OF ULSAN FOUNDATION FOR INDUSTRY COOPERATION, priority 2016, published 2019).

How the values were obtained:
stem cells [1] = test: real time PCR of senescence, stemness, proliferation and TLR3 signaling genes; assay type: cell-based; conditions: pre-treatment before poly IC
Method: The present inventors have confirmed the expression of proteins involved in proliferation and differentiation promotion of stem cell and stemness increase according to tofacitinib treatment using real time PCR. For this, cells were treated with TRIzol reagent to lyse the cells, and treated with chloroform to separate the aqueous solution layer containing the RNA. The separated aqueous solution was treated with isopropanol to precipitate RNA and centrifuged to extract RNA only. […] Real-time PCR was performed using the CFX Connect Real-Time PCR Detection System (Bio-rad) and primers used were shown in Table 1. Relative mRNA expression levels were analyzed using the comparative threshold cycles (2-^Ct) method.

stem cells [2] = test: Western blotting of senescence, stemness, proliferation and TLR3 signaling proteins; assay type: cell-based; conditions: JAK1 inhibitor pretreated 2 hours before poly IC 1 ug/ml, 2 days after poly IC
Method: More specifically, the stem cells were plated in a 10 cm dish (3×10^5 cells/dish) and treated with poly IC (1 ug/ml) one day later. […] After 2 days of poly IC treatment, western blotting was performed for analyzing the protein expression. For this, the cells were treated with RIPA lysis buffer (1% Np-40, 0.5% Na-deoxycholate, 0.4% SDS, 0.15 M NaCl, 0.05 M Tris-HCl (pH 8), Halt Protease and Phosphatase Inhibitor Cocktail (78440, Thermo Scientific)) and reacted in ice for 30 minutes to extract the cells. The cell lysate was centrifuged and the supernatant was collected and quantified using bicinchoninic acid protein assay kit (23225, Thermo Scientific). 10 ug of the protein extract was separated by 12% SDS-PAGE and transferred to a nitrocellulose membrane. After reacting for 1 h in blocking buffer (0.1% Tween 20, 5% BSA in tris buffered saline) at room temperature (RT), the primary antibody was treated and reacted overnight at 4° C. […] After washing three times with TBST solution, peroxidase-conjugated secondary antibody was reacted for 1 hour at RT and protein bands were analyzed using C-DiGit Blot Scanner (LI-COR).

stem cells [3] = test: SA-b-gal staining of poly IC-induced inflammatory senescence; assay type: cell-based; conditions: tofacitinib 1 ug/ml pretreated 2 hours before poly IC 1 ug/ml; measured 2 days after poly IC
Method: More specifically, stem cells were plated in 6 wells (2×10^4 cells/well) and treated with poly IC (1 ug/ml) one day later. […] After 2 days of the poly IC treatment, the degree of senescence was measured using senescence cells histochemical staining kit (CS0030, Sigma). For this, the plate was washed twice with PBS and fixed with fixation buffer (2% formaldehyde, 0.2% glutaraldehyde, 7.04 mM Na2HPO4, 1.47 mM KH2PO4, 0.137 M NaCl, and 2.68 mM KCl) for 6 minutes and reacted with staining buffer (6 mM Potassium Ferricyanide, 6 mM Potassium Ferrocyanide, 1 mg/ml X-gal Solution in phosphate buffer (pH 6)) at 37° C. for 24 hours. The number of b-galactoxidase-positive cells was measured by microscopic observation and the degree of cellular senescence was shown in a graph.

stem cells [4] = conditions: FACS analysis and real time PCR; pre-treatment of tofacitinib before poly IC
Method: More specifically the stem cells were treated with trypsin/EDTA and separated into single cells and mouse anti-human HLA-ABC (555553, BD Biosciences) was reacted at RT for 1 hour and washed three times and then analyzed using a FACS calibur instrument (BD Biosciences).

stem cells [5] = test: real time PCR of TGF-b and HGF, proteins that inhibit T cell activity; assay type: cell-based; conditions: pre-treatment of tofacitinib before poly IC
Method: For this, cells were treated with TRIzol reagent to lyse the cells, and treated with chloroform to separate the aqueous solution layer containing the RNA. The separated aqueous solution was treated with isopropanol to precipitate RNA and centrifuged to extract RNA only. The extracted RNA was quantified using nanodrop. 2 ug of RNA was synthesized using TOPscript cDNA synthesis kit (RT200, Enzynomics) as a cDNA mixture and used as a template for real time PCR. […] Relative mRNA expression levels were analyzed using the comparative threshold cycles (2-^Ct) method.

stem cells [6] = test: BrdU assay of cell survival rate after poly IC; assay type: cell-based; conditions: tofacitinib 1 ug/ml pretreated 2 hours before poly IC 1 ug/ml; BrdU ELISA 2 days after poly IC
Method: More specifically, cells were plated in 96 wells (1×10^3 cells/well) and treated with poly IC (1 μg/ml) one day later. […] After 2 days of poly IC treatment, cell survival rate was measured using BrdU cell proliferation ELISA (11647229001, Roche). For this, the BrdU labeling solution was treated at 10 μl/well for 4 hours at 37° C. Then, fixdenat buffer was treated by 200 ul/well for 30 minutes to immobilize the cells and reacted with 100 ul/well of anti BrdU-POD solution for 90 minutes. Thereafter, 100 ul of the substrate solution was treated, the OD value at 370 nm wavelength was measured by ELISA, and the cell survival rate was plotted.

SMILES	increase in expression of TLR3 signaling-related proteins (TLR3, IL6) (stem cells [1])	mRNA expression of the protein associated with senescence (PCNA), stemness (EZH2, BMI-1) and proliferation (survivin, CyclinD1) (stem cells [1])	expression of proteins associated with senescence (PCNA), stemness (EZH2, BMI-1), proliferation (survivin, CyclinD1) (stem cells [2])	increase in expression of TLR3 signaling-related proteins (TLR3, IL6) (stem cells [2])	inflammatory senescence induced by poly IC (b-galactoxidase-positive cells) (stem cells [3])	increase of immunogenicity-related proteins HLA-A and HLA-B by poly IC treatment (stem cells [4])	decrease of TGF-b and HGF by treatment of poly IC (stem cells [5])	cell survival rate by cellular senescence induced by poly IC (stem cells [6])
O=C(Nc1nc2cccc(-c3ccc(CN4CCS(=O)(=O)CC4)cc3)n2n1)C1CC1 [filgotinib]	less increased	less decreased	less decreased	less increased	–	–	–	–
C[C@@H]1CCN(C(=O)CC#N)C[C@@H]1N(C)c1ncnc2[nH]ccc12 [tofacitinib]	less increased	less decreased	less decreased	less increased	significantly reduced	less increased	less decreased	less decreased
